{"source": "patent US20250171437A1", "about": "(Agios Pharmaceuticals,Inc., priority 2022, published 2025)", "data": [{"target": "T1, human PAH with the R408W mutation (A375 R408W cells) (Homo sapiens, UniProt P00439, R408W)", "T1 construct": "expressed in transfected cells", "T1 sequence (P00439 1-452 R408W)": "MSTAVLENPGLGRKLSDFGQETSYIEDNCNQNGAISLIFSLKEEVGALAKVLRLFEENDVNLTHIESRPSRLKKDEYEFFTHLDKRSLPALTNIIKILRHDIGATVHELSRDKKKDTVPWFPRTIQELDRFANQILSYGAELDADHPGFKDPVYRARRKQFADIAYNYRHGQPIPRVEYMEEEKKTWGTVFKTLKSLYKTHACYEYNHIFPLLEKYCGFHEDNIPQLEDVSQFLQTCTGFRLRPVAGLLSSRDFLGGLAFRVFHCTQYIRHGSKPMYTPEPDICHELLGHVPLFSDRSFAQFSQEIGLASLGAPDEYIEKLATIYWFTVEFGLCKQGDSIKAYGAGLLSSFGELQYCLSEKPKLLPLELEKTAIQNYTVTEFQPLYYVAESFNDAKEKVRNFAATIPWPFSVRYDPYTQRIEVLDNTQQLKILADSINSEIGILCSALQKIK", "assay": "Cell Based Phenylalanine Flux Assay", "details": "A375 R408W cells; 24 hrs with compound, then 20 μM sepiapterin and 800 μM 13C9,15N-Phenylalanine for 4 hours; 13C-Tyrosine by LC-MS; average where tested multiple times", "procedure,_shortened": "(§1)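 A375 cells stably expressing lentiviral human PAH R408W were treated with compounds (10-point 2-fold dilutions, 0.5% DMSO, duplicate) for 24 h at 37 °C. Then 20 μM sepiapterin and 800 μM 13C9,15N-Phe were added for 4 h; media 13C-Tyr was measured by LC-MS to give AC50.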", "units": {"AC50": "µM"}, "values": [{"smiles": "Cn1cc(-c2nc(C(F)F)c(C(=O)N3CCc4[nH]cnc4[C@H]3c3nc4cccc(F)c4o3)o2)cn1", "note": "[Example 636, (S)-(4-(difluoromethyl)-2-(1-methyl-1H-pyrazol-4-yl)oxazol-5-yl)(4-(7-fluorobenzo[d]oxazol-2-yl)-6,7-dihydro-1H-imidazo[4,5-c]pyridin-5(4H)-yl)methanone]", "AC50": "≤ 0.5"}, {"smiles": "CC(C)(O)c1nc(Br)c(C(=O)N2CCc3[nH]cnc3[C@@H]2c2nc3cccc(F)c3o2)o1", "note": "[Example 264, (R)-(4-bromo-2-(2-hydroxypropan-2-yl)oxazol-5-yl)(4-(7-fluorobenzo[d]oxazol-2-yl)-6,7-dihydro-1H-imidazo[4,5-c]pyridin-5(4H)-yl)methanone]", "AC50": "0.5 to 1"}, {"smiles": "O=C(c1ocnc1C(F)F)N1CCc2[nH]cnc2[C@H]1c1nc2cccc(F)c2o1", "note": "[Example 173, (S)-(4-(difluoromethyl)oxazol-5-yl)(4-(7-fluorobenzo[d]oxazol-2-yl)-6,7-dihydro-1H-imidazo[4,5-c]pyridin-5(4H)-yl)methanone]", "AC50": "≤ 0.5"}, {"smiles": "COCc1ccc2c(C(=O)N3CCc4[nH]cnc4[C@H]3c3nc4c(F)cccc4o3)cnn2c1", "note": "[Example 275, (S)-(4-(4-fluorobenzo[d]oxazol-2-yl)-6,7-dihydro-1H-imidazo[4,5-c]pyridin-5(4H)-yl)(6-(methoxymethyl)pyrazolo[1,5-a]pyridin-3-yl)methanone]", "AC50": "0.5 to 1"}, {"smiles": "CC(C)n1nccc1C(=O)N1CCc2[nH]cnc2[C@@H]1c1nc2ccccc2o1", "note": "[Example 751, (R)-(4-(benzo[d]oxazol-2-yl)-6,7-dihydro-1H-imidazo[4,5-c]pyridin-5(4H)-yl)(1-isopropyl-1H-pyrazol-5-yl)methanone]", "AC50": "1 to 5"}, {"smiles": "C[C@H](O)c1nc(C(F)F)c(C(=O)N2CCc3[nH]cnc3[C@@H]2c2nc3c(F)cccc3o2)o1", "note": "[Example 228, (4-(difluoromethyl)-2-((S)-1-hydroxyethyl)oxazol-5-yl)((R)-4-(4-fluorobenzo[d]oxazol-2-yl)-6,7-dihydro-1H-imidazo[4,5-c]pyridin-5(4H)-yl)methanone]", "AC50": "1 to 5"}, {"smiles": "O=C(c1ocnc1C(F)F)N1CC2(CC2)c2[nH]cnc2[C@H]1c1nc2cccc(F)c2o1", "note": "[Example 911, (S)-(4-(difluoromethyl)oxazol-5-yl)(4′-(7-fluorobenzo[d]oxazol-2-yl)spiro[cyclopropane-1,7′-imidazo[4,5-c]pyridin]-5′(1′H,4′H,6′H)-yl)methanone]", "AC50": "≤ 0.5"}, {"smiles": "O=C(c1nnc(-c2ccc(C(F)(F)F)cc2)o1)N1CCc2[nH]cnc2[C@H]1c1nc2cc(F)ccc2o1", "note": "[Example 90, (S)-(4-(5-fluorobenzo[d]oxazol-2-yl)-6,7-dihydro-1H-imidazo[4,5-c]pyridin-5(4H)-yl)(5-(4-(trifluoromethyl)phenyl)-1,3,4-oxadiazol-2-yl)methanone]", "AC50": "0.5 to 1"}, {"smiles": "O=C(c1nnc(-c2ccn(C(F)F)n2)o1)N1CCc2[nH]cnc2[C@H]1c1nc2cccc(F)c2o1", "note": "[Example 862, (S)-(5-(1-(difluoromethyl)-1H-pyrazol-3-yl)-1,3,4-oxadiazol-2-yl)(4-(7-fluorobenzo[d]oxazol-2-yl)-6,7-dihydro-1H-imidazo[4,5-c]pyridin-5(4H)-yl)methanone]", "AC50": "≤ 0.5"}, {"smiles": "O=C(c1ocnc1C(F)(F)F)N1CCc2[nH]cnc2[C@H]1c1nc2c(F)ccc(F)c2o1", "note": "[Example 795, (S)-(4-(4,7-difluorobenzo[d]oxazol-2-yl)-6,7-dihydro-1H-imidazo[4,5-c]pyridin-5(4H)-yl)(4-(trifluoromethyl)oxazol-5-yl)methanone]", "AC50": "≤ 0.5"}, {"smiles": "O=C(c1oc(COC(F)(F)F)nc1C(F)F)N1CCc2[nH]cnc2[C@@H]1c1nc2cc(F)ccc2o1", "note": "[Example 116, (R)-(4-(difluoromethyl)-2-((trifluoromethoxy)methyl)oxazol-5-yl)(4-(5-fluorobenzo[d]oxazol-2-yl)-6,7-dihydro-1H-imidazo[4,5-c]pyridin-5(4H)-yl)methanone]", "AC50": "1 to 5"}, {"smiles": "O=C(c1oc(N2CCOCC2)nc1C(F)F)N1CCc2[nH]cnc2[C@@H]1c1nc2cccc(F)c2o1", "note": "[Example 647, (R)-(4-(difluoromethyl)-2-morpholinooxazol-5-yl)(4-(7-fluorobenzo[d]oxazol-2-yl)-6,7-dihydro-1H-imidazo[4,5-c]pyridin-5(4H)-yl)methanone]", "AC50": "0.5 to 1"}, {"smiles": "Cn1ccc(-c2nnc(C(=O)N3CCc4[nH]cnc4[C@@H]3c3nc4c(F)cccc4o3)o2)n1", "note": "[Example 380, (R)-(4-(4-fluorobenzo[d]oxazol-2-yl)-1,4,6,7-tetrahydro-5H-imidazo[4,5-c]pyridin-5-yl)(5-(1-methyl-1H-pyrazol-3-yl)-1,3,4-oxadiazol-2-yl)methanone]", "AC50": "0.5 to 1"}, {"smiles": "COc1cccc2nc([C@H]3c4nc[nH]c4CCN3C(=O)c3nc(C)nn3C)oc12", "note": "[Example 910, (R)-(1,3-dimethyl-1H-1,2,4-triazol-5-yl)(4-(7-methoxybenzo[d]oxazol-2-yl)-6,7-dihydro-1H-imidazo[4,5-c]pyridin-5(4H)-yl)methanone]", "AC50": "≥ 5"}, {"smiles": "Cc1cccc2nc([C@@H]3c4nc[nH]c4CCN3C(=O)c3cc(C(F)F)nn3C)oc12", "note": "[Example 735]", "AC50": "≤ 0.5"}, {"smiles": "COc1ccc2c(C(=O)N3CCc4[nH]cnc4[C@@H]3c3nc4cccc(F)c4o3)cnn2c1", "note": "[Example 326, (R)-(4-(7-fluorobenzo[d]oxazol-2-yl)-6,7-dihydro-1H-imidazo[4,5-c]pyridin-5(4H)-yl)(6-methoxypyrazolo[1,5-a]pyridin-3-yl)methanone]", "AC50": "1 to 5"}, {"smiles": "Cc1ccc2oc([C@@H]3c4nc[nH]c4CCN3C(=O)c3nnc(-c4ccn(C)n4)o3)nc2c1", "note": "[Example 389, (S)-(5-(1-methyl-1H-pyrazol-3-yl)-1,3,4-oxadiazol-2-yl)(4-(5-methylbenzo[d]oxazol-2-yl)-6,7-dihydro-1H-imidazo[4,5-c]pyridin-5(4H)-yl)methanone]", "AC50": "≤ 0.5"}, {"smiles": "Cc1ccc2oc([C@H]3c4nc[nH]c4CCN3C(=O)c3oc(-c4ccn(C)n4)nc3C(F)F)nc2c1", "note": "[Example 756, (R)-(4-(difluoromethyl)-2-(1-methyl-1H-pyrazol-3-yl)oxazol-5-yl)(4-(5-methylbenzo[d]oxazol-2-yl)-6,7-dihydro-1H-imidazo[4,5-c]pyridin-5(4H)-yl)methanone]", "AC50": "1 to 5"}, {"smiles": "Cc1ccc2oc([C@@H]3c4nc[nH]c4CCN3C(=O)c3nnc(-c4ccc(F)cn4)o3)nc2c1", "note": "[Example 99, (S)-(5-(5-fluoropyridin-2-yl)-1,3,4-oxadiazol-2-yl)(4-(5-methylbenzo[d]oxazol-2-yl)-6,7-dihydro-1H-imidazo[4,5-c]pyridin-5(4H)-yl)methanone]", "AC50": "0.5 to 1"}]}, {"target": "T1, human PAH with the R408W mutation (A375 R408W cells)", "assay": "Cell Based Phenylalanine Flux Assay", "details": "A375 cells expressing R408W PAH; 24 hrs with compound, then 20 μM sepiapterin and 800 μM 13C9,15N-Phenylalanine for 4 hours; 13C-Tyrosine by LC-MS; average where tested multiple times", "procedure,_shortened": "as §1", "units": {"AC50": "µM"}, "values": [{"smiles": "Cc1cc(-c2nnc(C(=O)N3CCc4[nH]cnc4C3c3nc4cc(F)ccc4o3)o2)nn1C", "note": "(stereo not shown)", "AC50": "1 to 5"}, {"smiles": "CC(C)(O)c1cc(C(=O)N2CCc3[nH]cnc3C2c2nc3ccc(F)cc3o2)on1", "note": "(single isomer, unassigned) [4R enantiomer of 2-{5-[4-(6-fluoro-1,3-benzoxazol-2-yl)-1H,4]", "AC50": "≥ 5"}, {"smiles": "Cn1cnnc1C(=O)N1CCc2[nH]cnc2C1c1nc2c(F)cccc2o1", "note": "(stereo not shown)", "AC50": "1 to 5"}, {"smiles": "Cn1cncc1-c1nnc(C(=O)N2CCc3[nH]cnc3C2c2nc3c(F)ccc(F)c3o2)o1", "note": "(stereo not shown)", "AC50": "≥ 5"}, {"smiles": "Cc1cccc2nc(C3c4nc[nH]c4CCN3C(=O)c3cc(C(C)(C)C)nn3C)oc12", "note": "(stereo not shown)", "AC50": "1 to 5"}, {"smiles": "O=C(c1cnco1)N1CCc2[nH]cnc2C1c1nc2c(F)c(F)ccc2o1", "note": "(stereo not shown)", "AC50": "≥ 5"}]}]}
